The RepoRT retention time repository (doi:10.1021/acs.analchem.7b00925)

Assay: HILIC, Merck SeQuant ZIC-HILIC, 100 × 2.1 mm, 3.5 µm, 25 °C, 0.3 mL/min, estimated dead time 0.73 min; A: water + 0.1% formic acid, pH 3; B: acetonitrile + 0.1% formic acid, pH 3; gradient (min/%B) 0/95 1.5/95 13.5/40 15.5/40 29.7/25 33.5/25 34.5/95 41.5/95
Conditions: stereoisomer not certain

Point of comparison: `O=C(O)Cc1ccccn1` [2-Pyridylacetic acid], LC retention time 4.67 min. Against it:
- CCCCC(N)C(=O)O (racemic) [DL-Norleucine] — within 1.5-fold, 6.41 min
- Cn1c(=O)c2c([nH]c(=O)n2C)n(C)c1=O [1,3,7-trimethyluric acid] — 2.5-fold lower, 1.87 min
- Cn1c(=O)[nH]c2[nH]c(=O)n(C)c2c1=O [1,7-dimethyluric acid] — within 1.5-fold, 3.78 min
- O=C(O)Cn1ccnc1 [1-Imidazoleacetic acid] — 1.6-fold higher, 7.7 min
- C[n+]1cccc(C(N)=O)c1 [1-Methylnicotinamide] — 1.8-fold higher, 8.28 min
- CC(O)CN (configuration not stated) [1-amino-2-propanol] — 1.9-fold higher, 8.65 min
- Cn1c(=O)[nH]c2[nH]c(=O)[nH]c2c1=O [1-methyluric acid] — within 1.5-fold, 4.66 min
- O=c1[nH]cccc1O [2,3-Dihydroxypyridine] — within 1.5-fold, 4.47 min
- NC(CCCC(N)C(=O)O)C(=O)O (configuration not stated) [2,6-diaminopimelic acid] — 2.4-fold higher, 11.1 min
- CC(=O)c1cnccn1 [2-Acetylpyrazine] — 4.9-fold lower, 0.96 min
- Nc1ccccc1C(=O)O [2-Aminobenzoic acid] — 3.8-fold lower, 1.24 min
- Nc1ccccc1O [2-Aminophenol] — within 1.5-fold, 6 min
- O=c1[nH]c2ccccc2o1 [2-Benzoxazolinone] — 4.6-fold lower, 1.01 min
- CC1CCCN1 (configuration not stated) [2-Methylpyrrolidine] — within 1.5-fold, 6.72 min
- O=C1CCCCN1 [2-Piperidone] — 2.5-fold lower, 1.85 min
- O=c1[nH]cnc2c1ncn2C1CC(O)C(CO)O1 (configuration not stated) [2-deoxyinosine] — within 1.5-fold, 4.69 min
- O=C(O)CNC(=O)c1ccco1 [2-furoylglycine] — 3.2-fold lower, 1.46 min
- NC(Cc1ccc(O)c(O)c1)C(=O)O (configuration not stated) [3,4-dihydroxyphenylalanine] — 1.7-fold higher, 8.17 min
- OCCc1ccc(O)c(O)c1 [3,4-dihydroxyphenylethanol] — 2.1-fold lower, 2.27 min
- Oc1cccnc1 [3-Hydroxypyridine] — within 1.5-fold, 6.36 min
- O=C(O)Cc1c[nH]c2ccccc12 [3-Indoleacetic acid] — 3.7-fold lower, 1.26 min
- O=C(O)Cc1cccnc1 [3-Pyridylacetic acid] — within 1.5-fold, 5.94 min
- O=C(O)[C@H]1NCCC1O (some centres not stated) [3-hydroxyproline] — 1.7-fold higher, 8.12 min
- Cn1cncc1CC(N)C(=O)O (configuration not stated) [3-methylhistidine] — 2.6-fold higher, 12 min
- Nc1ccc(O)cc1 [4-Aminophenol] — 1.7-fold higher, 8.1 min
- Nc1ccc(C(=O)O)c(O)c1 [4-Aminosalicylic acid] — 3.6-fold lower, 1.3 min
- NC(N)=NCCCC(=O)O [4-Guanidinobutanoic acid] — 1.6-fold higher, 7.51 min
- CC(CCC(=O)[O-])[N+](C)(C)C (configuration not stated) [4-aminovaleric acid betaine] — within 1.5-fold, 5.95 min
- Cc1ncc(CO)c(C(=O)O)c1O [4-pyridoxic acid] — within 1.5-fold, 4.14 min
- C[N+](C)(C)CCCCC(=O)[O-] [5-Aminovaleric acid betaine] — within 1.5-fold, 6.01 min
- NCC(=O)CCC(=O)O [5-aminolevulinic acid] — 1.8-fold higher, 8.57 min
- O=C(O)Cc1c[nH]c2ccc(O)cc12 [5-hydroxyindoleacetate] — within 1.5-fold, 3.62 min
- NC(Cc1c[nH]c2ccc(O)cc12)C(=O)O (configuration not stated) [5-hydroxytryptophan] — 1.6-fold higher, 7.58 min
- Cn1cnc2nc(N)[nH]c(=O)c21 [7-methylguanine] — within 1.5-fold, 6.62 min
- Cn1cnc2[nH]c(=O)[nH]c(=O)c21 [7-methylxanthine] — 1.7-fold lower, 2.72 min
- Nc1nc2c([nH]c(=O)n2C2OC(CO)C(O)C2O)c(=O)[nH]1 (configuration not stated) [8-hydroxyguanosine] — within 1.5-fold, 6.1 min
- CC(=O)OCC[N+](C)(C)C [Acetylcholine] — within 1.5-fold, 3.46 min
- CC(=O)NC(CCCNC(N)=O)C(=O)O (configuration not stated) [Acetylcitrulline] — within 1.5-fold, 5.09 min
- Nc1ncnc2c1ncn2C1OC(COP(=O)(O)O)C(O)C1O (configuration not stated) [Adenosine mono-phosphate] — 1.8-fold higher, 8.41 min
- CNCC(O)c1ccc(O)c(O)c1 (configuration not stated) [Adrenaline] — 1.8-fold higher, 8.61 min
- NCCCCN=C(N)N [Agmatine] — 3.3-fold higher, 15.3 min
- CC(C(=O)[O-])[N+](C)(C)C (configuration not stated) [Alanine betaine] — 1.6-fold higher, 7.32 min
- CC(N)C(=O)O (configuration not stated) [Alanine] — 1.7-fold higher, 8.06 min
- CC(C)CC(NC(=O)C(C)N)C(=O)O (configuration not stated) [Alanyl-leucine] — within 1.5-fold, 6.54 min
- O=c1[nH]c(=O)c2cn[nH]c2[nH]1 [Alloxanthine] — within 1.5-fold, 4.27 min
- [NH3+]CCCCCC(=O)[O-] [Aminocaproate] — 1.5-fold higher, 7.15 min
- CC1(C)SC2C(NC(=O)C(N)c3ccc(O)cc3)C(=O)N2C1C(=O)O (configuration not stated) [Amoxicillin] — within 1.5-fold, 6.82 min
- NC(=NCCCC(N)C(=O)O)NC(CC(=O)O)C(=O)O (configuration not stated) [Argininosuccinic acid] — 2.4-fold higher, 11.3 min
- CC(NC(=O)C(Cc1ccccc1)NC(=O)C(N)CC(=O)O)C(=O)O (stereo not drawn) [Asp-Phe-Ala] — within 1.5-fold, 6.71 min
- NC(=O)CC(N)C(=O)O (configuration not stated) [Asparagine] — 1.9-fold higher, 8.67 min
- COC(=O)C(Cc1ccccc1)NC(=O)C(N)CC(=O)O (configuration not stated) [Aspartame] — within 1.5-fold, 5.89 min
- NC(COCc1ccccc1)C(=O)O (configuration not stated) [Benzylserine] — within 1.5-fold, 5.46 min
- CC(O)C(O)c1cnc2nc(N)[nH]c(=O)c2n1 (configuration not stated) [Biopterin] — within 1.5-fold, 6.01 min
- O=S(=O)(O)CCNC1CCCCC1 [CHES] — within 1.5-fold, 5 min
- NCCC(=O)NC(Cc1cnc[nH]1)C(=O)O (configuration not stated) [Carnosine] — 2.8-fold higher, 13.1 min
- CC(CCC(=O)O)C1CCC2C3C(O)CC4CC(O)CCC4(C)C3CCC12C (configuration not stated) [Chenodeoxycholic acid] — 3.6-fold lower, 1.3 min
- O=C(C=Cc1ccc(O)c(O)c1)OC1CC(O)(C(=O)O)CC(O)C1O (configuration not stated) [Chlorogenic acid] — within 1.5-fold, 4.42 min
- C[N+](C)(C)CCOP(=O)(O)OP(=O)([O-])OCC1OC(n2ccc(N)nc2=O)C(O)C1O (configuration not stated) [Citicholine] — 2.3-fold higher, 10.6 min
- NC(=O)NCCCC(N)C(=O)O (configuration not stated) [Citrulline] — 1.9-fold higher, 8.89 min
- CN1C(=O)CCC1c1cccnc1 (configuration not stated) [Cotinine] — within 1.5-fold, 5.16 min
- NC(CCSCC(N)C(=O)O)C(=O)O (configuration not stated) [Cystathionine] — 2.2-fold higher, 10.5 min
- NC(CSS(=O)(=O)O)C(=O)O (configuration not stated) [Cysteine-S-sulfate] — 1.6-fold higher, 7.64 min
- NC(CS)C(=O)O (configuration not stated) [Cysteine] — 1.6-fold higher, 7.62 min
- N[C@H]1C(O)O[C@H](COP(=O)(O)O)[C@@H](O)[C@@H]1O (stereo partly drawn) [D-glucosamine-6-phosphate] — 2.1-fold higher, 10 min
- OCCNCCO [Diethanolamine] — 1.8-fold higher, 8.22 min
- O=C1CC(C(=O)O)NC(=O)N1 (configuration not stated) [Dihydroorotic acid] — within 1.5-fold, 4.02 min
- CC1=NCCC(C(=O)O)N1 (configuration not stated) [Ectoine] — within 1.5-fold, 6.85 min
- OCC(O)C(O)CO (configuration not stated) [Erythritol] — within 1.5-fold, 5.11 min
- O=C(O)c1cc(O)c(O)c(O)c1 [Gallic acid] — the same, 4.67 min
- O=C1OC(CO)C(O)C(O)C1O (configuration not stated) [Gluconolactone] — within 1.5-fold, 4.49 min
- NC1C(O)OC(CO)C(O)C1O (configuration not stated) [Glucosamine] — 2.2-fold higher, 10.5 min
- OCC1OC(O)C(O)C(O)C1O (configuration not stated) [Glucose] — within 1.5-fold, 6.86 min
- NC(=O)CCC(N)C(=O)O (configuration not stated) [Glutamine] — 1.8-fold higher, 8.52 min
- NC(N)=NCC(=O)O [Glycocyamine] — 1.8-fold higher, 8.52 min
- NCC(=O)NCC(=O)O [Glycyl-glycine] — 2-fold higher, 9.29 min
- CC(C)C(NC(=O)CN)C(=O)O (configuration not stated) [Glycyl-valine] — 1.5-fold higher, 7.08 min
